Test results: US20240279602A1, “METHOD FOR PRODUCING CEREBRAL CORTICAL CELL PREPARATION DERIVED FROM HUMAN PLURIPOTENT STEM CELLS” (Kyoto University, priority 2021, published 2024)

Tests used:
cerebral organoids [1] = assay: Flow cytometry of marker expression after DAPT treatment; format: cell-based, human
Protocol: Cerebral organoids, cerebral cortical cell aggregates, and high-purity cerebral cortical cell aggregates were dispersed into single cells by using dispersing solution for neural cells (FUJIFILM Wako Pure Chemical Corporation), fixed by using Fixation Buffer (BD Biosciences) at 4° C. for 30 minutes, then treated with Perm/Wash buffer (BD Biosciences) at room temperature for 15 minutes, subjected to double or triple staining, and analyzed by using an Aria III. The analysis software used was FACSDiva software (BD). The primary antibodies and secondary antibodies used are shown in the following. • PerCP-Cy5.5 Mouse IgGI k isotype control: 550795 (BD Biosciences) Alexa 647 Mouse Anti-human Oct3/4 antigen: 560329 (BD Biosciences) • Tra-2-49/6E-FITC antibody: FCMAB133F (Merck) • Alexa647 mouse anti β-tubulin Class III: 560394 (BD) • PerCP-Cy5.5 Mouse anti-Human Sox1: 561549 (BD) • Alexa647 mouse anti-Human Pax6: 561165(BD) • Alexa488 mouse anti-Ki67: 562249 (BD) • Alexa488 rat anti-Ctip2 antibody: ab123449 (Abcam)
Next, cell aggregates immediately after DAPT treatment (immediately after the completion of step (ii)) were analyzed for the proportions of constituent cells by means of flow cytometry. Cerebral organoids on Day 40 were subjected to DAPT treatment for 3 days, and expressions of marker genes were then analyzed by flow cytometry.
Furthermore, iPS cells on Day 0 (undifferentiated iPS cells), organoids not subjected to DAPT treatment (Ctrl, without step (ii)), organoids subjected to DAPT treatment for 3 days (Day 40 to 43) (DAPT 3d, with step (ii)), and organoids subjected to DAPT treatment for 3 days and subsequently cultured again, as cell aggregates without being dispersed into cells, with a culture medium removed of DAPT for 4 days (DAPT 3d+Release 4d, with step (ii) and step (iv), and without step (iii)) were analyzed by flow cytometry; the results are shown in FIG. 15.
Culture was performed in the same manner as the scheme in FIG. 3 as in Example 1 from −Day 7 to Day 35. A culture medium obtained by adding 5 μM SB431542 to StemFit culture medium without solution C(=bFGF-free culture medium) was used in step (1) in the case of “with preparation for neural differentiation” (with step (1)), and StemFit culture medium was used in the case of “without preparation for neural differentiation” (without step (1)). Thereafter, cerebral cortical cell aggregates were induced by the method described for step (ii) in Example 4, and evaluated by immunostaining. In addition, high-density cerebral cortical cell aggregates were induced by dispersing into single cells and then reaggregating the single cells by the method described for step (iii) and step (iv) in Example 4, and analyzed by flow cytometry.
In the “single-cell DAPT method (DAPT treatment is performed in step (iv))” in FIG. 24(B), cerebral organoids were screened on day 38 after the initiation of induction of differentiation and dispersed into single cells by the method described for step (iii) in Example 4, and the cells were then suspended in a culture medium obtained by adding 10 ng/mL GDNF, 20 ng/mL BDNF, 200 μM ascorbic acid, 400 μM dibutyryl-cAMP, and 30 μM Y-27632 to the culture medium in step (2b) with addition of DAPT at a concentration of 0 μM, 0.1 μM, 1 μM, or 10 μM. Subsequently, the cells were regathered by the method described for step (iv) in Example 4 in the presence of DAPT, and cultured for 1 day, 2 days, or 3 days. Thereafter, the culture medium was switched to a culture medium obtained by adding 10 ng/mL GDNF, 20 ng/mL BDNF, 200 μM ascorbic acid, and 400 μM dibutyryl-cAMP to the culture medium in step (2b), and culture was continued until day 10 after the initiation of reaggregation. The cells on day 3, day 4, or day 10 after the initiation of reaggregation were analyzed by RT-qPCR, and the cells on day 10 were analyzed by flow cytometry; the results are shown in FIGS. 25 to 27. […]

cerebral organoids [2] = assay: Single-cell gene expression analysis of Rosettes organoids with or without DAPT; format: cell-based, human; details: Rosettes organoids treated with DAPT for 3 days (DAPT+)
Protocol: First, to prepare a single-cell suspension from an organoid, the organoid was separated into single cells with dispersing solution for neural cells (FUJIFILM Wako Pure Chemical Corporation) under recommended conditions. The dispersed cells were resuspended in HBSS supplemented with 10% (v/v) KSR and 10 μM Y-27632 (FUJIFILM Wako Pure Chemical Corporation) at a density of 1,000 cells/μL. Into a Chromium Next GEM Chip G (2000177 10X Genomics, Inc.), approximately 4,670 cells were loaded per channel, and treated with a Chromium controller to acquire Gel Beads-in-Emulsion (GEM). Libraries were produced by using Chromium Next GEM Single Cell 3′ Reagent Kits v3.1 (1000121; 10X Genomics, Inc.) in accordance with a protocol from the manufacturer (CG000204 Rev C). The sequences of the libraries were analyzed with Novaseq 6000 (Illumina, Inc.).
Cell Ranger pipeline was used for mapping of sequences in single-cell RNA-seq. GRCh38 human genome sequences were used as reference genome sequences. UMI count values acquired through analysis with a next-generation sequencer were analyzed by using Seurat R package. First, data of organoids were normalized by a Log-Normalize method, and then all the data of organoids were integrated. […]

[3] = DAPT 3d+Release 4d: DAPT 3 days, then 4 days in medium removed of DAPT, without dispersion
[4] = single-cell DAPT method (step (iv)), DAPT raised from 0 μM to 10 μM, 3 days treatment, 10 days culture
[5] = week 5 organoids dispersed, 10 μM DAPT 3 days, then DAPT-free culture to 4 days vs 14 days
[6] = without preparation for neural differentiation (without step (1)), DAPT treatment, dispersion and reaggregation

For `C[C@H](NC(=O)Cc1cc(F)cc(F)c1)C(=O)N[C@H](C(=O)OC(C)(C)C)c1ccccc1` [DAPT, N-[N-(3,5-difluorophenacetyl)-L-alanyl]-S-phenylglycine t-butyl ester], the “proportion of Ki67/Sox1/Pax6-triple-positive cells” value (cerebral organoids [1]; [3]) was 0%, the “proportion of cells co-positive for Ctip2 and βIII-tubulin” value (cerebral organoids [1]; [3]) was 87.4% and the “proportion of Pax6-positive/Sox1-positive/Ki67-positive cells (proliferative cells)” value (cerebral organoids [1]; cerebral organoids on Day 40, DAPT treatment for 3 days (DAPT 3d)) was 0.01%. For the same compound, the “proportion of Ctip2/βIII-tubulin-double-positive cells” value (cerebral organoids [1]; cerebral organoids on Day 40, DAPT treatment for 3 days (DAPT 3d), all viable cells) was 86.1%, the “proportion of Pax6/Ki67-double-positive neural stem cells (radial glia)” value (cerebral organoids [1]; cerebral organoids on Day 40, DAPT treatment for 3 days, all viable cells) was 1.5% and the “cells with co-expression of Tra2-49/6E and Oct4 (undifferentiated iPS cell indicator)” value (cerebral organoids [1]; organoids under any of the conditions (DAPT 3d, DAPT 3d+Release 4d)) was “not detected”. For the same compound, the “proportion of Ctip2/βTubIII (Tuj1)-double-positive cells” value (cerebral organoids [1]; [4]) was 89.6%, the “proportion of Pax6-positive/Sox1-positive/Ki67-positive cells (proliferative cells)” value (cerebral organoids [1]; [4]) was 0.8% and the “proportion of Ctip2/Tuj1-co-positive cells” value (cerebral organoids [1]; [5]) was “increase”. The “proportion of Pax6/Ki67-double-positive cells and of Pax6/Ki67/Sox1-triple-positive cells” value (cerebral organoids [1]; [5]) was “decreased as the culture period after DAPT treatment was extended”, the “proportion of Ctip2/βTubIII-double-positive cells” value (cerebral organoids [1]; [6]) was 85.9% and the “proportion of Pax6-positive/Sox1-positive/Ki67-positive cells (proliferative cells)” value (cerebral organoids [1]; [6]) was 0%. The “proportion of Pax6/Ki67-double-positive neural stem cells (radial glia)” value (cerebral organoids [1]; [6]) was 1.9% and the “cell population with expression of Pax6 and MKI67” value (cerebral organoids [2]) was “largely shrunk”.
